Reference: patent US20250230138A1, “COMPOUNDS HAVING A T-STRUCTURE FORMED BY AT LEAST FOUR CYCLES FOR USE IN THE TREATMENT OF CANCER AND OTHER INDICATIONS” (TheRas, Inc., priority 2022, published 2025)
Read-outs that look alike come from different tables or passages of the source.

Assays:
pAKT in BT474 cells = test: Cell-based pAKT HTRF assay in BT474 cells; settings: BT474 cells, 4 hr incubation, Compounds 10-999, read-out: pAKT inhibition IC50 in BT474 cells
Summary of the method: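 Compound titration: 3 μM downward in 3-fold steps, nine points, 4 hr on cells. Detection: lysis, then d2 plus Eu Cryptate antibody mix, room-temperature incubation of 4–24 h, and time-resolved fluorescence read at 615 nm.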

[1] = target: Cys242 in human PIK3CA (157-299) (Homo sapiens (Human), UniProt P42336); test: Covalent modification assay using MALDI-TOF MS; assay type: biochemical; settings: 4 h reaction time point; 3.33 μM protein target, 1:7.5 protein to compound ratio (compounds 1-852)
Summary of the method: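 PIK3CA (157-299) at 3.33 μM or 1 μM in 20 mM HEPES, 150 mM NaCl, 2 mM MgCl2, pH 7.3 was incubated with compound (from 10 mM DMSO stocks) in the dark at room temperature for 15 min, 30 min, 2 h or 4 h. Linear-mode MALDI-TOF peak heights gave percent modification.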

Sequence of Cys242 in human PIK3CA (157-299) (P42336 157-299): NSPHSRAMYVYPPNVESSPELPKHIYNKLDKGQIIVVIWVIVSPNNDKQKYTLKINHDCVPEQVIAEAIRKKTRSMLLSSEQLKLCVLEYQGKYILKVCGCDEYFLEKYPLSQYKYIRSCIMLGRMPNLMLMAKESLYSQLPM

IC50 (pAKT in BT474 cells) [nM]	IC50 (pAKT in BT474 cells; Homo sapiens, BT-474) [nM]	SMILES	% of modification [1]
< 100	–	C=CC(=O)N1CCn2nc(-c3nc(C4CCN(C(C)C)CC4)c4ccsc4c3-c3ccc(F)cc3OC(C)C)cc2C1 [Compound 240]	A (percent of modification of PIK3CA protein ≥75%)
100 to 1000	–	C=CC(=O)N1CC[C@H](n2cc(-c3nc(-c4ccnc(N)c4)c4ccsc4c3-c3ccc(F)cc3OCC3CCNC(=O)C3)ccc2=O)C1 (stereo partly drawn) [Compound 241]	A (percent of modification of PIK3CA protein ≥75%)
< 100	–	C=CC(=O)N1CCn2nc(-c3nc(-c4ccc5c(c4)CCN(C)C5)c4ccsc4c3-c3ccc(F)cc3OCCOC)cc2C1 [Compound 242]	A (percent of modification of PIK3CA protein ≥75%)
100 to 1000	–	C=CC(=O)N1CCn2nc(-c3nc(N4CCCCC4)c4ccsc4c3-c3ccc(F)cc3OCC3CCN(C)C(=O)C3)cc2C1 (stereo not drawn) [Compound 243]	A (percent of modification of PIK3CA protein ≥75%)
< 100	–	C=CC(=O)N1CCn2nc(-c3nc(-c4ccc5c(c4)CCN(C(C)C)C5)c4ccsc4c3-c3ccc(F)cc3OC(F)F)cc2C1 [Compound 244]	A (percent of modification of PIK3CA protein ≥75%)
< 100	–	C=CC(=O)N1CCn2nc(-c3nc(-c4cnn(C(F)F)c4)c4ccsc4c3-c3ccc(F)cc3OCCOC)cc2C1 [Compound 245]	A (percent of modification of PIK3CA protein ≥75%)
< 100	–	C=CC(=O)N1CCn2nc(-c3nc(-c4ccc(=O)[nH]c4)c4ccsc4c3-c3ccc(F)cc3OC(C)C)cc2C1 [Compound 248]	A (percent of modification of PIK3CA protein ≥75%)
< 100	–	C=CC(=O)N1CCn2nc(-c3nc(-c4ccnc(N)c4)c4ccsc4c3-c3ccc(F)cc3OCC3CCNC(=O)C3)cc2C1 (stereo not drawn) [Compound 249]	A (percent of modification of PIK3CA protein ≥75%)
< 100	–	C=CC(=O)N1CCn2nc(-c3nc(-c4ccc5c(c4)CCN(C(C)C)C5)c4ccsc4c3-c3ccc(F)cc3F)cc2C1 [Compound 250]	A (percent of modification of PIK3CA protein ≥75%)
< 100	–	C=CC(=O)N1CCn2nc(-c3nc(-c4cnc5c(c4)CN(C)CC5)c4ccsc4c3-c3ccc(F)cc3OCCOC)cc2C1 [Compound 253]	A (percent of modification of PIK3CA protein ≥75%)
< 100	–	C=CC(=O)N1CCn2nc(-c3nc(-c4ccc5c(c4)CCN(C(C)C)C5)c4ccsc4c3-c3ccc(F)cc3OCC3CCNC(=O)C3)cc2C1 (stereo not drawn) [Compound 254]	A (percent of modification of PIK3CA protein ≥75%)
100 to 1000	–	C=C(F)C(=O)N1CCn2nc(-c3nc(-c4ccc5c(c4)CCN(C)C5)c4ccsc4c3-c3ccc(F)cc3OC(C)C)nc2C1 [Compound 255]	A (percent of modification of PIK3CA protein ≥75%)
100 to 1000	–	C=C(F)C(=O)N1CCn2nc(-c3nc(-c4ccc5c(c4)CCNC5=O)c4ccsc4c3-c3ccc(F)cc3OC(C)C)nc2C1 [Compound 256]	A (percent of modification of PIK3CA protein ≥75%)
< 100	–	C=CC(=O)N1CCn2nc(-c3nc(-c4ccc5c(c4)[C@H](O)CC5)c4ccsc4c3-c3ccc(F)cc3OCCOC)cc2C1 [Compound 257]	A (percent of modification of PIK3CA protein ≥75%)
–	< 100	C=C(F)C(=O)N1CCn2nc(-c3nc(-c4ccc5c(c4)CCNC5=O)c4ccsc4c3-c3ccc(F)cc3OC(C)C)cc2C1 [Compound 258, 6-[7-(4-fluoro-2-isopropoxy-phenyl)-6-[5-(2-fluoroprop-2-enoyl)-6,7-dihydro-4H-pyrazolo[1,5-a]pyrazin-2-yl]thieno[3,2-c]pyridin-4-yl]-3,4-dihydro-2H-isoquinolin-1-one]	B (50%<percent of modification <75%)
< 100	–	C=CC(=O)N1CCn2nc(-c3nc(-c4cncc(C#N)c4)c4ccsc4c3-c3ccc(F)cc3OC(C)C)cc2C1 [Compound 259]	A (percent of modification of PIK3CA protein ≥75%)
< 100	–	C=CC(=O)N1CCn2nc(-c3nc(-c4ccc5c(c4)CCNC5)c4ccsc4c3-c3ccc(F)cc3OCC3CCNC(=O)C3)cc2C1 (stereo not drawn) [Compound 261]	A (percent of modification of PIK3CA protein ≥75%)
< 100	–	C=CC(=O)N1CCn2nc(-c3nc(-c4ccc5c(c4)[C@@H](O)CC5)c4ccsc4c3-c3ccc(F)cc3OCCOC)cc2C1 [Compound 262]	A (percent of modification of PIK3CA protein ≥75%)

IC50 (pAKT in BT474 cells) [nM]	IC50 (pAKT in BT474 cells; Homo sapiens, BT-474) [nM]	SMILES	% of modification [1]
< 100	–	C=CC(=O)N1CCn2nc(-c3nc(-c4ccc5c(c4)CCN(C(C)C)C5)c4ccsc4c3-c3ccc(F)cc3OC)cc2C1 [Compound 263]	A (percent of modification of PIK3CA protein ≥75%)
> 3000	–	C=CC(=O)N1CCn2cc(-c3nc(-c4ccc(=O)n(C)c4)c4ccsc4c3-c3ccc(F)cc3OCC3CCN(C)C(=O)C3)nc2C1 (stereo not drawn) [Compound 264]	A (percent of modification of PIK3CA protein ≥75%)
< 100	–	C=CC(=O)N1CCn2nc(-c3nc(-c4ccc5c(c4)CCN(C)C5)c4ccsc4c3-c3ccc(F)cc3OC)cc2C1 [Compound 265]	A (percent of modification of PIK3CA protein ≥75%)
< 100	–	C=CC(=O)N1CCn2nc(-c3nc(-c4ccc(=O)n(CC(F)F)c4)c4ccsc4c3-c3ccc(F)cc3OCCOC)cc2C1 [Compound 266]	A (percent of modification of PIK3CA protein ≥75%)
100 to 1000	–	C=C(F)C(=O)N1CCn2nc(-c3nc(-c4ccc(=O)n(C)c4)c4ccsc4c3-c3ccc(F)cc3OC(C)C)nc2C1 [Compound 267]	A (percent of modification of PIK3CA protein ≥75%)
100 to 1000	–	CC#CC(=O)N1CCn2nc(-c3nc(-c4ccc5c(c4)CCNC5=O)c4ccsc4c3-c3ccc(F)cc3OC(C)C)cc2C1 [Compound 268]	A (percent of modification of PIK3CA protein ≥75%)
< 100	–	C=CC(=O)N1CCn2nc(-c3nc(-c4cccc(C#N)c4)c4ccsc4c3-c3ccc(F)cc3OCCOC)cc2C1 [Compound 270]	A (percent of modification of PIK3CA protein ≥75%)
< 100	–	C=CC(=O)N1CCn2nc(-c3nc(-c4ccc5c(c4)CCN(C)C5)c4ccsc4c3-c3ccc(F)cc3OC(C)C)nc2C1 [Compound 271]	A (percent of modification of PIK3CA protein ≥75%)
< 100	–	C=CC(=O)N1CCn2cc(-c3nc(-c4ccc(=O)n(C)c4)c4ccsc4c3-c3ccc(F)cc3OC(C)C)nc2C1 [Compound 272]	A (percent of modification of PIK3CA protein ≥75%)
–	> 3000	C=CC(=O)N1CCn2nc(-c3nc(-c4ccc(=O)n(C)c4)cnc3-c3ccc(F)cc3OC(C)C)cc2C1 [Compound 273, 5-[5-(4-fluoro-2-isopropoxy-phenyl)-6-(5-prop-2-enoyl-6,7-dihydro-4H-pyrazolo[1,5-a]pyrazin-2-yl)pyrazin-2-yl]-1-methyl-pyridin-2-one]	C (25%≤percent of modification <50%)
–	100 to 1000	C=CC(=O)N1CCc2nc(-c3nc(-c4ccc5c(c4)CCNC5)c4c(F)csc4c3-c3ccc(F)cc3OC)sc2C1 [Compound 274, 1-[2-[3-fluoro-7-(4-fluoro-2-methoxy-phenyl)-4-(1,2,3,4-tetrahydroisoquinolin-6-yl)thieno[3,2-c]pyridin-6-yl]-6,7-dihydro-4H-thiazolo[5,4-c]pyridin-5-yl]prop-2-en-1-one]	A (percent of modification of PIK3CA protein ≥75%)
< 100	–	C=CC(=O)N1CCn2nc(-c3nc(-c4cnn(C)c4)c4ccsc4c3-c3ccc(F)cc3OCC)cc2C1 [Compound 275]	A (percent of modification of PIK3CA protein ≥75%)
100 to 1000	–	C=C(F)C(=O)N1CCn2nc(-c3nc(-c4ccc(=O)n(C)c4)c4ccsc4c3-c3ccc(F)cc3OC(C)C)cc2C1 [Compound 276]	A (percent of modification of PIK3CA protein ≥75%)
100 to 1000	–	COC/C=C/C(=O)N1CCn2nc(-c3nc(-c4ccc5c(c4)CCNC5=O)c4ccsc4c3-c3ccc(F)cc3OC(C)C)cc2C1 [Compound 277]	A (percent of modification of PIK3CA protein ≥75%)
100 to 1000	–	C=C(F)C(=O)N1CCn2nc(-c3nc(-c4ccc(=O)n(C)c4)c4ccsc4c3-c3ccc(F)cc3OCCOC)cc2C1 [Compound 278]	B (50%<percent of modification <75%)
–	100 to 1000	C=CC(=O)N1CCn2nc(-c3nc(-c4cnn(C)c4)ccc3-c3ccc(F)cc3OC(C)C)cc2C1 [Compound 279, 1-[2-[3-(4-fluoro-2-isopropoxy-phenyl)-6-(1-methylpyrazol-4-yl)-2-pyridyl]-6,7-dihydro-4H-pyrazolo[1,5-a]pyrazin-5-yl]prop-2-en-1-one]	A (percent of modification of PIK3CA protein ≥75%)
< 100	–	C=CC(=O)N1CCn2nc(-c3nc(-c4cnn([C@@H](CO)CF)c4)c4ccsc4c3-c3ccc(F)cc3OCCOC)cc2C1 [Compound 280]	A (percent of modification of PIK3CA protein ≥75%)
–	> 3000	C=CC(=O)N1CCn2nc(-c3cc(-c4cnn(C)c4)cnc3-c3ccc(F)cc3OCCOC)cc2C1 [Compound 281, 1-[2-[2-[4-fluoro-2-(2-methoxyethoxy)phenyl]-5-(1-methylpyrazol-4-yl)-3-pyridyl]-6,7-dihydro-4H-pyrazolo[1,5-a]pyrazin-5-yl]prop-2-en-1-one]	C (25%≤percent of modification <50%)
